Series [1] deals with obese dyslipidemic, insulin resistant non-diabetic patients. Briefly: Sensitization to insulin in obese dyslipidemic, insulin resistant non-diabetic patients. The series is classed as in vivo, human. The protocol:
Five obese dyslipidemic, insulin resistant non-diabetic patients were subjected to 4 weeks maintenance period on placebo followed by treatment p.o. with increasing daily doses ranging from 30-600 mg M16ββ per dose for a period of 4 weeks.

For series [2], the system named is healthy male volunteers. The experiment in a line: Evaluation of safety clinical and laboratory parameters in healthy male volunteers. The series is classed as in vivo, human. The following applies: 1 to 4 weeks, varying doses, during treatment and one month after. The protocol: Fifteen healthy male volunteers aged 25-52 were treated for periods ranging from 1 to 4 weeks with varying doses of M16ββ.

The mark [3] stands for this setting: p.o. 30-600 mg per dose daily, 4 weeks.

Take `CC(C)(CCCCCCCCCCC(C)(C)CC(=O)O)CC(=O)O` [M16ββ, 3,3,14,14-tetramethylhexadecane-1,16-dioic acid]: the hypolipidemic efficacy entry in series [1] (at daily doses below 200 mg) is “substantial hypolipidemic efficacy”. In series [1] (setting [3]), the “HOMA (homeostatic model assessment)” value is on record as “decrease”, the LDL-C result was “no change”, the VLDL-C entry was “robust decrease” and the glucose uptake result is “increased”. In series [1] (setting [3]), the plasma insulin clearance result was “increase”, the plasma insulin levels result is on record as “decrease”, the sensitization to insulin result is listed as “increased sensitization to insulin” and the tolerability result is reported as “well tolerated in all dosages”. Moreover, the “drug-related changes in safety clinical (body weight, blood pressure, pulse, ECG) and laboratory (hematology, blood chemistry, urinary analysis) parameters” value in series [2] is listed as “no drug-related changes were detected”.
